The source made the active and inactive calls. How the calls were made is not given here.
System: Broad 7084-01 inhibitor HTS, set 2
Assay: single-concentration hits, screen 7084 set 2 (AID 977613);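 further: host cells are infected with parasite promastigotes that become internalized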

SMILES | active concentration
CS(=O)(=O)N1CC2(C1)[C@@H](c1ccccc1)[C@@H](CO)N2Cc1ccccn1 | > 10 µM (inactive)
CN(C)CC(=O)N1CC2(C1)[C@H](c1ccccc1)[C@@H](CO)N2S(C)(=O)=O | > 10 µM (inactive)
OC[C@H]1[C@@H](c2ccc(C#CC3(O)CCCC3)cc2)[C@H]2CN(Cc3cncnc3)CCCCN21 | > 10 µM (inactive)
C/C=C/c1ccccc1[C@H]1[C@@H](C#N)N(C(=O)NC2CCCCC2)[C@H]1CO | > 10 µM (inactive)
O=C(C[C@H]1CC[C@H]2[C@@H](COC[C@@H](O)CN2CCc2ccccc2)O1)NCc1ccc(F)cc1 | > 10 µM (inactive)
CCCNC(=O)N1[C@H](CO)[C@@H]2c3ccccc3N(C(=O)C3CCC3)C[C@@H]21 | > 10 µM (inactive)
CCCNC(=O)N1CC2(C1)[C@@H](c1ccccc1)[C@@H](CO)N2Cc1ccccn1 | > 10 µM (inactive)
CCc1cnc(N2[C@H](C#N)[C@@H](c3ccccc3C3=CCCCC3)[C@@H]2CO)s1 | > 10 µM (inactive)
CC(C)NC(=O)N1CC2(C1)[C@H](c1ccccc1)[C@H](CO)N2CCC(F)(F)F | > 10 µM (inactive)
CN(C)C(=O)C[C@H]1CC[C@@H]2[C@H](COC[C@H](O)CN2CC2CCCC2)O1 | > 10 µM (inactive)
O=C(Nc1ccc(F)cc1)N1CC(=O)N2[C@H](C1)[C@H](c1ccc(C#Cc3cccnc3)cc1)[C@@H]2CO | > 10 µM (inactive)
CN1C(=O)c2cc(NC(=O)Nc3ccccc3Cl)ccc2OC[C@H]2O[C@H](CC(=O)NCCCN3CCOCC3)CC[C@@H]21 | > 10 µM (inactive)
COc1ccc2c3c([nH]c2c1)[C@@H](CO)N(S(=O)(=O)c1ccc(C)cc1)CC31CCN(C(=O)Cc2cccnc2)CC1 | > 10 µM (inactive)
CCCNC(=O)N1CC(=O)N2[C@H](CO)[C@@H](c3ccc(C#CCC4CCCC4)cc3)[C@H]2C1 | > 10 µM (inactive)
COc1ccc2c3c([nH]c2c1)[C@@H](CO)N(Cc1ccccc1F)CC31CN(CC2CC2)C1 | > 10 µM (inactive)
CN(C)CC(=O)N1CCCCN2[C@@H](CO)[C@@H](c3ccc(/C=C/c4ccccc4)cc3)[C@@H]2C1 | < 10 µM
CN1CCN(C(=O)C[C@@H]2CC[C@H]3[C@@H](COC[C@@H](O)CN3C(=O)C3CC3)O2)CC1 | > 10 µM (inactive)
C[C@H](NC(=O)[C@@H]1[C@@H](CO)[C@@H]2Cn3c(cccc3=O)[C@H]1N2CCC(F)(F)F)c1ccccc1 | > 10 µM (inactive)
CN(C)C(=O)C[C@@H]1CC[C@H]2[C@H](COc3ccc(NC(=O)c4ccc(F)cc4)cc3C(=O)N2C)O1 | > 10 µM (inactive)
CN1C(=O)c2cc(NC(=O)C3CCOCC3)ccc2OC[C@@H]2O[C@@H](CC(=O)NCCc3ccncc3)CC[C@H]21 | > 10 µM (inactive)
COc1ccc2c3c([nH]c2c1)[C@@H](CO)N(C(=O)c1ccc(F)cc1)CC31CCN(S(=O)(=O)c2cccs2)CC1 | > 10 µM (inactive)
O=C(C[C@H]1CC[C@H]2[C@@H](COC[C@H](O)CN2C(=O)Nc2cc(Cl)cc(Cl)c2)O1)NCC1CCCCC1 | > 10 µM (inactive)
C/C=C/c1ccc([C@@H]2[C@H](CO)N(C(=O)CC)C23CN(CCC(F)(F)F)C3)cc1 | > 10 µM (inactive)
COc1ccccc1-c1ccccc1[C@H]1[C@H](C#N)N(C(=O)CN(C)C)[C@H]1CO | > 10 µM (inactive)

SMILES | active concentration
CCCNC(=O)N1[C@@H]2Cn3c(ccc(-c4ccccc4OC)c3=O)[C@H]1[C@@H](C(=O)NCC)[C@@H]2CO | > 10 µM (inactive)
O=C(C[C@@H]1CC[C@H]2[C@@H](COC[C@@H](O)CN2C(=O)c2cccnc2)O1)NCc1ccccc1 | > 10 µM (inactive)
O=C(C[C@@H]1CC[C@@H]2[C@H](COC[C@@H](O)CN2Cc2cccc(C(F)(F)F)c2)O1)NCc1ccccc1 | > 10 µM (inactive)
COc1cccc(-c2ccc3c(c2)[C@H]2[C@H](CCN2S(=O)(=O)c2ccccc2C)[C@H](CO)N3)c1 | > 10 µM (inactive)
CC(=O)N1CC[C@@H]2[C@@H](CO)Nc3ccc(C#Cc4cccnc4)cc3[C@@H]21 | > 10 µM (inactive)
O=C(NCc1ccccn1)[C@@H]1[C@@H](CO)[C@@H]2Cn3c(ccc(C4=CCCC4)c3=O)[C@H]1N2Cc1cccnc1 | > 10 µM (inactive)
COc1ccccc1CN1[C@@H](CO)[C@@H]2c3ccccc3N(C(=O)c3cccnc3)C[C@@H]21 | > 10 µM (inactive)
CCCNC(=O)N1[C@H](CO)[C@@H](c2ccccc2-c2ccccc2F)[C@@H]1C#N | > 10 µM (inactive)
CC=Cc1ccc2n(c1=O)C[C@@H]1[C@@H](CO)[C@H](C(=O)N3CCc4ccccc4C3)N(C(=O)C3CC3)[C@H]21 (mixture of isomers) | > 10 µM (inactive)
O=C(CC1CC1)N1CC(=O)N2[C@H](CO)[C@H](c3ccc(C#Cc4cccc(F)c4)cc3)[C@@H]2C1 | > 10 µM (inactive)
CCCNC(=O)N1[C@H](CO)[C@@H](c2ccccc2C2=CCCCC2)[C@@H]1C#N | > 10 µM (inactive)
CC(=O)N1CC2(C1)[C@H](c1ccc(-c3cccc(C#N)c3)cc1)[C@H](CO)N2CCC(F)(F)F | > 10 µM (inactive)
CCNC(=O)[C@H]1[C@H](CO)[C@H]2Cn3c(ccc(-c4ccccc4)c3=O)[C@H]2N1CC | > 10 µM (inactive)
N#C[C@@H]1[C@@H](c2ccccc2-c2ccc(F)cc2)[C@H](CO)N1C(=O)Cc1cccnc1 | > 10 µM (inactive)
O=C(C[C@@H]1CC[C@H]2[C@@H](COC[C@@H](O)CN2Cc2cc(F)cc(F)c2)O1)NC1CCC1 | > 10 µM (inactive)
O=C(C[C@@H]1CC[C@H]2[C@@H](COC[C@@H](O)CN2C(=O)Nc2ccc(C(F)(F)F)cc2)O1)NCC1CC1 | > 10 µM (inactive)
CCN1CC(=O)N2[C@H](CO)[C@H](c3ccc(Br)cc3)[C@@H]2C1 | > 10 µM (inactive)
COc1ccc(NC(=O)N2CC[C@@H]3[C@H]2c2cc(Br)ccc2N(C)[C@H]3CO)cc1 | > 10 µM (inactive)
CN1C[C@@H](O)COC[C@@H]2O[C@@H](CC(=O)NC3CCCC3)CC[C@H]21 | > 10 µM (inactive)
O=C(NCC(F)(F)F)[C@@H]1[C@@H](CO)[C@@H]2Cn3c(cccc3=O)[C@H]1N2CC1CCOCC1 | > 10 µM (inactive)
O=C(NCCCN1CCOCC1)[C@@H]1[C@@H](CO)[C@@H]2Cn3c(ccc(C4=CCCCC4)c3=O)[C@H]1N2 | > 10 µM (inactive)
O=C(C1CCOCC1)N1C[C@H]2[C@@H](c3ccccc31)[C@H](CO)N2C(=O)Cc1ccccc1 | > 10 µM (inactive)
COC(=O)C[C@H]1CC[C@@H]2[C@@H](COc3ccc(NS(=O)(=O)c4ccccc4Cl)cc3C(=O)N2C)O1 | > 10 µM (inactive)
COCC(=O)N1[C@H](C#N)[C@@H](c2ccccc2-c2cccc(C)c2)[C@@H]1CO | > 10 µM (inactive)

SMILES | active concentration
COc1cccc(CN2CCCCN3[C@H](C2)[C@H](c2ccc(-c4cccnc4)cc2)[C@@H]3CO)c1 | > 10 µM (inactive)
O=C(C[C@@H]1CC[C@@H]2[C@H](COC[C@@H](O)CN2C(=O)c2cccnc2)O1)NCc1ccccc1 | > 10 µM (inactive)
O=C(c1ccccn1)N1CC2(C1)[C@H](c1ccccc1)[C@@H](CO)N2Cc1ccccc1 | > 10 µM (inactive)
O=C(C[C@@H]1CC[C@@H]2[C@H](COC[C@H](O)CN2CCC(F)(F)F)O1)NCC1CC1 | > 10 µM (inactive)
O=C1CNC[C@H]2[C@H](c3ccc(C4=CCCC4)cc3)[C@@H](CO)N12 | > 10 µM (inactive)
COc1cccc(NC(=O)N2C[C@H](O)COC[C@H]3O[C@H](CC(=O)NC4CCC4)CC[C@@H]32)c1 | > 10 µM (inactive)
N#C[C@@H]1[C@H](c2ccccc2C2=CCCC2)[C@@H](CO)N1C(=O)CN1CCOCC1 | > 10 µM (inactive)
O=C(C[C@H]1CC[C@H]2[C@@H](COC[C@@H](O)CN2C(=O)c2ccc3c(c2)OCO3)O1)NC1CCC1 | > 10 µM (inactive)
N#C[C@@H]1[C@H](c2ccccc2-c2cccc(F)c2)[C@H](CO)N1S(=O)(=O)c1cccc(F)c1 | > 10 µM (inactive)
CCCC#Cc1ccc([C@@H]2[C@H](CO)N3C(=O)CN(S(=O)(=O)c4ccccc4C)C[C@@H]23)cc1 | > 10 µM (inactive)
O=C(C[C@@H]1CC[C@@H]2[C@H](COC[C@H](O)CN2Cc2ccc3c(c2)OCO3)O1)Nc1ccccc1 | > 10 µM (inactive)
CCCNC(=O)N1[C@H](CO)[C@H](c2ccccc2-c2ccccc2F)[C@@H]1C#N | > 10 µM (inactive)
COc1cccc(C(=O)Nc2ccc3c(c2)C(=O)N(C)[C@H]2CC[C@@H](CC(=O)NCCCN4CCOCC4)O[C@H]2CO3)c1 | > 10 µM (inactive)
O=C(C[C@@H]1CC[C@H]2[C@@H](COC[C@@H](O)CN2CC2CC2)O1)NCC1CC1 | > 10 µM (inactive)
COc1ccc2c3c([nH]c2c1)[C@@H](CO)N(C(=O)Nc1ccc(F)cc1)CC31CN(Cc2cc(-c3ccccc3)on2)C1 | > 10 µM (inactive)
CN1C(=O)c2cc(NC(=O)c3cccc(F)c3)ccc2OC[C@@H]2O[C@H](CC(=O)NCC3CCCCC3)CC[C@@H]21 | > 10 µM (inactive)
CCC(=O)N1CC(=O)N2[C@H](CO)[C@H](c3ccc(-c4ccc(C#N)cc4)cc3)[C@@H]2C1 | > 10 µM (inactive)
O=C(Cc1ccccn1)N1CC2(C1)[C@H](c1ccccc1)[C@@H](CO)N2C(=O)c1cccnc1 | > 10 µM (inactive)
CN1CCN(C(=O)C[C@@H]2CC[C@H]3[C@@H](COC[C@@H](O)CN3CC3CC3)O2)CC1 | > 10 µM (inactive)
N#C[C@H]1[C@@H](c2ccccc2C2=CCCCC2)[C@H](CO)N1C(=O)C1CCOCC1 | > 10 µM (inactive)
COc1ccc(CN2[C@H](CO)[C@H]3c4ccccc4NC[C@H]32)cc1 | < 10 µM
O=C(C[C@H]1CC[C@@H]2[C@H](COC[C@H](O)CN2S(=O)(=O)c2ccccc2)O1)Nc1ccccc1 | > 10 µM (inactive)
O=C(c1ccc2c(c1)OCO2)N1C[C@H]2[C@@H](c3ccccc31)[C@@H](CO)N2C(=O)CC1CC1 | > 10 µM (inactive)
